Assay results taken from US11325908B2, “CaMKII inhibitors and uses thereof” (The Johns Hopkins University, priority 2014, dated 2022).

Biological target: CaMKIIδ (Homo sapiens (Human), UniProt Q13557)
Assay: In vitro CaMKIIδ activity assay (coupled assay measuring ADP released, AC3 peptide substrate)
Assay type: biochemical
Conditions: full length C-terminal His/Gln tagged CaMKIIδ construct, 16 nM enzyme, 25° C., compound 0.5 nM to 10 uM, duplicate
Protocol: An exemplary procedure for the in vitro CaMKIIδ inhibition assay, which can be used to determine the inhibitory action of compounds of the invention toward CaMKII, follows. The procedure is taken from Chao L H, et al., (2010) Nat Struct Mol Biol. 17(3): 264-272, which is incorporated herein by reference in its entirety.
The inhibition of CaMKII activity was evaluated using a coupled assay measuring ADP released following ATP hydrolysis and phosphor-transfer to the peptide substrate AC3 (KKALHRQETVDAL; SEQ ID NO: 1) (1). A full length, C-terminal His/Gln tagged CaMKIIδ construct was used (sequence in Table 3 below).
Compounds were added in 5 uL volume to wells in UV transparent 96-well plates (1/2 area well size). The final compound concentrations tested ranged from 0.5 nM to 10 uM). Assays were performed in duplicate. CaMKIIδ is added to at a final concentration of 16 nM to a mixture containing 100 mM Tris (pH 7.5), 150 mM KCl, 0.27 mM EGTA, 1.3 mM PEP, 0.2 mg/ml AC3, 6.9% (v/v) PK/LDH mixture (Sigma P0294), 0.38 mM NADH and kept on ice. 72 uL of the enzyme mixture was added to the wells containing compounds and the plate was shaken briefly and kept on ice. The assay was initiated by adding 23 uL of a mixture containing 100 mM Tris (pH 7.5), 150 mM KCl, 1.7 mM CaCl2, 48 mM MgCl2, 0.35 mM ATP and 6.7 ug/mL calmodulin. The rate of ADP released was measured as the rate of absorbance decrease at […] at 25° C. and plotted against the log of the compound concentration (FIG. 1). IC50 data were fitted using GraphPad Prism software.

Row | IC50 | Compound
1 | 0.05 to 0.25 µM | c1cc(-c2ccnc3[nH]c4ccccc4c23)cc(N2CCNCC2)c1 [Compound I-1, 4-(3-(piperazin-1-yl)phenyl)-9H-pyrido[2,3-b]indole]
2 | 0.05 to 0.25 µM | N=C(N)Nc1cccc(-c2ccnc3[nH]c4ccccc4c23)c1 [Compound I-4]
3 | 0.25 to 1 µM | N=C(N)NCc1cccc(-c2ccnc3[nH]c4ccccc4c23)c1 [Compound I-5]
4 | 0.05 to 0.25 µM | Nc1cccc(-c2ccnc3[nH]c4ccccc4c23)c1 [Compound I-6]
